Data from EP1183044B1, “ADJUVANT COMBINATIONS FOR IMMUNIZATION AND VACCINES” (priority 1999, dated 2000).

Tested on: IFN-γ
Assay type: in vivo, C57BL/6 mice
Settings: 72 h supernatant of blood cell cultures one week after last booster; ESAT-6 10 µg/dose, three vaccinations

Q: Which “ESAT-6 specific recall response, IFN-γ, Expt.I” value does the source give for CCCCCCCCCCCCCCCCCC[N+](C)(C)CCCCCCCCCCCCCCCCCC.[Br-] [DDA, dimethyl dioctadecyl ammonium bromide] here?
A: <50 pg/mL
